Experimental data taken from US20180221343A1, “PHARMACEUTICAL COMPOSITION FOR PREVENTING OR TREATING MACULAR DEGENERATION” (KOREA RESEARCH INSTITUTE OF CHEMICAL TECHNOLOGY, priority 2011, published 2018).

Columns and labels:
[1] = Retinal delivery of eye drop formulation (levels in ocular tissues and plasma); type: in vivo, Rats; conditions: eye drop 50 μl of Formulation Example 1
Protocol: We evaluated whether the eye drop formulation containing (2R,3R,4S)-6-amino-4-[N-(4-chlorophenyl)-N-(1H-imidazol-2-ylmethyl)amino]-3-hydroxy-2-methyl-2-dimethoxymethyl-3,4-dihydro-2H-1-benzopyran is penetrated through the cornea and then delivered to the retina. Rats (8 weeks old) were used in the test; and the eye drop formulation (50 μl) prepared in the following Formulation Example 1 was dropped on each rat's eye.

[2] = tested on: rat corneal epithelial wound; assay: Corneal Wound Healing Assay (2); type: in vivo, SD rats; conditions: topical 3 and 6 mg/ml every 6 hour; observed at 0 and 18 hours
Protocol: SD rats (male, 8 weeks, 250 g) were used. Animal study protocol was in accordance with the Association for Research in Vision and Ophthalmology Statement for the Use of Animals in Ophthalmic and Visual Research. All animals were housed in individual cages and maintained under standard conditions (12 hour light-dark cycle).
Rats were anesthetized by Zoletil® (50 mg/kg, Tiletamina 25 mg, Zolazepam 25 mg; Vibrac, Carros, France) and Rompun® (10 mg/kg, Bayer, France). The cornea was anesthetized by topical 0.5% proparacaine (Alcaine®; Alcon, Fort Worth, Tex., USA). After applying 0.5% proparacaine drops, 5.0 mm Trephine Blade® (Katena, Denville, N.J., USA) was placed and fixed firmly on the corneal surface. One drop of 20% ethanol were put into the tephine well and left in place for 30 seconds, then absorbed with a dry cellulose sponge (Merocel®; Medtronic Solan, Jacksonville, Fla., USA) and irrigated with normal saline. And the epithelium was removed in 6.0 mm diameter.
The drugs were each topically applied in 3 mg/ml (0.3%) and 6 mg/ml (0.6%) concentrations (in 5% DMSO, 10% PEG (Mw 400) and 85% saline (0.9% NaCl)) in every 6 hour, respectively.
The corneal wounds were captured by digital camera under cobalt blue light and the defect area was analyzed by Image J software (Ver 4.1, NIH). The significance between Vehicle and each group was analyzed by paired T-test, and the significance of the test was analyzed by One Way ANOVA analysis.

retinal angiogenesis = assay: Laser-induced retinal damage model in micro pigs, fluorescein intensity; type: in vivo, Yutacan Micro pigs
Protocol: The tests were performed by using Yutacan Micro pigs (3 kg, male) as animal models having retinal damage (15 pigs for the experiment group). The retinal macular degeneration models were established according to the same procedures as in Brown Norway rats of Example 5. The eye drop formulation (100 μl, 0.9 mg/ml) prepared according to the same procedures as in Example 2 was administered four times per day for 2 weeks. For vitreous injection, the solution of the same compound (20 μl, 0.3 mg/ml) was injected into the vitreous humor once. 2 weeks after the administrations, 1% fluorescein was intravenously injected so as to observe the laser-induced damage site; and the effects of the compound of the present invention, i.e., (2R,3R,4S)-6-amino-4-[N-(4-chlorophenyl)-N-(1H-imidazol-2-ylmethyl)amino]-3-hydroxy-2-methyl-2-dimethoxymethyl-3,4-dihydro-2H-1-benzopyran. The evaluations quantifying the photographs of FIG. 9 were performed by using the Image J (NIH, USA) program and the results thereof were shown in FIG. 10.

level in Aqueous humor ([1]; 30 minutes): 1.25 µg/mL
level in Retina ([1]; 30 minutes): 0.846 µg/mL
level in Vitreous humor ([1]; 30 minutes): 0.195 µg/mL
level in Aqueous humor ([1]; 120 minutes): 0.827 µg/mL
level in Plasma ([1]; 120 minutes): 0.0009 µg/mL
level in Retina ([1]; 120 minutes): 0.225 µg/mL
level in Vitreous humor ([1]; 120 minutes): 0.194 µg/mL
inhibitory effect on normal healing of rat corneal epithelial wound [2]: did not show inhibitory effect
Structure (SMILES): COC(OC)[C@]1(C)Oc2ccc(N)cc2[C@H](N(Cc2ncc[nH]2)c2ccc(Cl)cc2)[C@H]1O [KR-31831, (2R,3R,4S)-6-amino-4-[N-(4-chlorophenyl)-N-(1H-imidazol-2-ylmethyl)amino]-3-hydroxy-2-methyl-2-dimethoxymethyl-3,4-dihydro-2H-1-benzopyran]
intensity at laser-induced damage site (non-drug administered control group = 1) (retinal angiogenesis; eye drop formulation 100 μl, 0.9 mg/ml, 4 times per day, 2 weeks): 0.46±0.17
intensity at laser-induced damage site (non-drug administered control group = 1) (retinal angiogenesis; vitreous injection 20 μl, 0.3 mg/ml, once, 2 weeks after): 0.36±0.14
